From patent publication US7629365B2 (Glaxo Group Limited, priority 2006, dated 2009)
Values after ≈ are worked out from the molar mass of the structure shown. Like-named read-outs stand apart in the source and are kept apart here.

Experiment: Compound solubility determination in FaSSIF and FeSSIF
Format: physicochemical
Settings: thermodynamic from solid
Method: Compound Solubility Determination
An amount of 3 mg solid compound with LC-MS purity ≧95% was required. This amount was split between 3 different glass vials (1.8 ml volume each), placing 1 mg compound into each one.
Organic solvents of HPLC grade were used. Ultra pure water (Milli-Q grade) was used. Buffers were prepared with ultra pure water and filtered using 0.45μ nylon filters. The compositions of each solvent employed in this assay are described below (part III).
2. Determination of Equilibrium Solubility (Assuming Chemical Stability in the Desired Solvent is Not a Problem).
For each of the three vial samples prepared as described above, in which the amount of compound was totally dissolved, the following procedure was subsequently carried out: • a) A small amount (approx. 0.1 mg) of additional solid compound was added to the vial to maintain an excess of the compound in the mixture in the form of undissolved solid. • b) The samples were magnetically stirred for 24 hr. If required, additional solid compound (0.1 mg) was added to maintain excess of it and then the samples were stirred again. • c) Then the samples were filtered (Millipore Milex filters nylon 0.2 um) and three aliquots were taken (one from each of the three vials) and analysed by LC-MS. • d) The pH of the final solution in each sample was measured with a pH-meter (WTW pH330i and a pH-electrode Sentix 41). 3. LC-MS Assay for Analytical Quantification
All filtered aliquots were analysed by LC-MS. The analysis was carried out with a Luna 5 μC18(2) column 4.6×150 mm, using a HP1100HPLC instrument interfaced with a Waters ZMD-2000 MS spectrometer. The concentration of the final sample as prepared above was calculated from that of a reference calibration curve obtained from serial dilutions of a 2 mM solution of the compound under investigation in DMSO (Aldrich cat. ref.: 27685-5) stock solution.
The analysis of all LC-MS data was performed with MassLynx 3.4 software. Statistical and graphic analysis of data was performed using Microsoft Excel. The concentration (μM) and solubility (μg/ml) for each compound was calculated using the peak areas from the sample and those from the calibration curve.
• A) FaSSIF is a solvent which simulates the Fasted State of the Intestinal Fluid. (FaSSIF: Fasted State Simulated Intestinal Fluid).
FaSSIF Preparation Procedure. 1. Preparation of 1 L of pH 6.8 Buffer Solution • 1.a. 3.947 g potassium phosphate and 16.401 g potassium chloride were dissolved in approx. 900 ml of water. • 1.b. The pH was adjusted to 6.8 by slow addition of 0.1 N sodium hydroxide (Scharlau SO 0441010C) under magnetic stirring. • 1.c The mixture was diluted to a volume of 1000 ml with water. 2. Preparation of 100 ml of FaSSIF • 2.a. 269 mg NaTaurochol. (Aldrich T-4009) was dissolved in approx. 80 ml of pH 6.8 buffer. • 2.b. 114 mg lecithin (Sigma P-7318) was dissolved in this NaTaurochol/buffer solution (this was carried out with a nitrogen filled glove bag). • 2.c. The resulting mixture was diluted to a volume of 100 ml with further pH 6.8 buffer • 2.d. The final solution was covered with a layer of nitrogen or alternative inert gas. The bottle was sealed with parafilm and stored at 4° C. • B) FeSSIF is a solvent which simulates the Fed State of the Intestinal Fluid. (FeSSIF: Fed State Simulated Intestinal Fluid).
FeSSIF Preparation Procedure. 1. Prepare 1 L of pH 5 Buffer Solution • 1.a. 15.2 g potassium chloride and 8.25 ml glacial acetic acid were dissolved in approx. 900 ml of water. • 1.b. The pH was adjusted to 5 by slow addition of NaOH 0.1N (Scharlau SO 0441010C) under magnetic stirring. • 1.c The mixture was diluted to a volume of 1000 ml with water. 2. Preparation of 100 mL of FeSSIF • 2.a. 806.5 mg NaTaurochol (Aldrich T-4009) was dissolved in 80 ml of pH 5 buffer. • 2.b. 288 mg lecithin (Sigma P-7318) was dissolved in this NaTaurochol/buffer solution (carried out with a nitrogen filled glove bag). • 2.c. […]

[1] = FaSSIF (Fasted State Simulated Intestinal Fluid), pH 6.8 buffer, read-out: Solubility in FaSSIF
[2] = FeSSIF (Fed State Simulated Intestinal Fluid), pH 5.0 buffer, read-out: Solubility in FeSSIF

| SMILES | solubility at 24 h [1] | solubility at 24 h [2] |
| --- | --- | --- |
| Cc1[nH]c(CO)c(-c2ccc(Oc3cccc(C(F)(F)F)c3)cc2)c(=O)c1Cl [Example 2] | 1 to 5 µg/mL (≈ 2.44 to 12.2 µM) | 1 to 5 µg/mL (≈ 2.44 to 12.2 µM) |
| Cc1[nH]c(C=NO)c(Cl)c(=O)c1-c1ccc(Oc2ccc(OC(F)(F)F)cc2)cc1 (single isomer, unassigned) [Example 7, 3-chloro-6-methyl-4-oxo-5-[4-({4-[(trifluoromethyl)oxy]phenyl}oxy)phenyl]-1,4-dihydro-2-pyridinecarbaldehyde oxime] | 1 to 5 µg/mL (≈ 2.28 to 11.4 µM) | 5 to 10 µg/mL (≈ 11.4 to 22.8 µM) |
| CON=Cc1[nH]c(C)c(Cl)c(=O)c1-c1ccc(Oc2ccc(OC(F)(F)F)cc2)cc1 (single isomer, unassigned) [Example 6, 5-Chloro-6-methyl-4-oxo-3-[4-({4-[(trifluoromethyl)oxy]phenyl}oxy)phenyl]-1,4-dihydro-2-pyridinecarbaldehyde-O-methyloxime] | 5 to 10 µg/mL (≈ 11 to 22.1 µM) | 10 to 50 µg/mL (≈ 22.1 to 110 µM) |
| Cc1[nH]c(CO)c(Cl)c(=O)c1-c1ccc(Oc2ccc(OC(F)(F)F)cc2)cc1 [Example 3, 3-chloro-2-(hydroxymethyl)-6-methyl-5-[4-({4-[(trifluoromethyl)oxy]phenyl}oxy)phenyl]-4(1H)-pyridinone] | 5 to 10 µg/mL (≈ 11.7 to 23.5 µM) | 10 to 50 µg/mL (≈ 23.5 to 117 µM) |
| Cc1[nH]c(/C=N/O)c(-c2ccc(Oc3ccc(OC(F)(F)F)cc3)cc2)c(=O)c1Cl [Example 5, 5-Chloro-6-methyl-4-oxo-3-[4-({4-[(trifluoromethyl)oxy]phenyl}oxy)phenyl]-1,4-dihydro-2-pyridinecarbaldehyde oxime] | 5 to 10 µg/mL (≈ 11.4 to 22.8 µM) | 10 to 50 µg/mL (≈ 22.8 to 114 µM) |
| Cc1[nH]c(CCCO)c(-c2ccc(Oc3ccc(OC(F)(F)F)cc3)cc2)c(=O)c1Cl [Example 8, 3-chloro-6-(3-hydroxypropyl)-2-methyl-5-[4-({4-[(trifluoromethyl)oxy]phenyl}oxy)phenyl]-4(1H)-pyridinone] | 10 to 50 µg/mL (≈ 22 to 110 µM) | 10 to 50 µg/mL (≈ 22 to 110 µM) |
| Cc1[nH]c(CO)c(Cl)c(=O)c1-c1ccc(Oc2cccc(C(F)(F)F)c2)cc1 [Example 4, 3-chloro-2-(hydroxymethyl)-6-methyl-5-(4-{[3-(trifluoromethyl)phenyl]oxy}phenyl)-4(1H)-pyridinone] | 1 to 5 µg/mL (≈ 2.44 to 12.2 µM) | 10 to 50 µg/mL (≈ 24.4 to 122 µM) |
| Cc1[nH]c(CO)c(-c2ccc(Oc3ccc(OC(F)(F)F)cc3)cc2)c(=O)c1Cl [Example 1, 3-Chloro-6-(hydroxymethyl)-2-methyl-5-[4-({4-[(trifluoromethyl)oxy]phenyl}oxy)phenyl]-4(1H)-pyridinone] | 1 to 5 µg/mL (≈ 2.35 to 11.7 µM) | 5 to 10 µg/mL (≈ 11.7 to 23.5 µM) |
